Measured values reported in the NIST ThermoML archive (doi:10.1021/je0302250).
± gives the expanded uncertainty stated by the source.

Assays:
[1] = 101.3 kPa, Liquid, Capillary tube (Ostwald / Ubbelohde) method
[2] = xn = mol fraction of the nth substance listed; conditions: 101.3 kPa, Liquid, Capillary tube (Ostwald / Ubbelohde) method

CN(CCO)CCO [N-methyldiethanolamine]
[1]
Conditions	viscosity [mPa·s]
313.15 K	34.62 ± 0.41
333.15 K	14.38 ± 0.17
353.15 K	7.082 ± 0.086
363.15 K	5.277 ± 0.064

CN(CCO)CCO [N-methyldiethanolamine] + O
viscosity [mPa·s], [2]
Conditions	x1 = 0.06	x1 = 0.09	x1 = 0.129	x1 = 0.257	x1 = 0.372	x1 = 0.583	x1 = 0.743	x1 = 1
313.15 K	1.94 ± 0.023	3.115 ± 0.039	5.108 ± 0.069	15.18 ± 0.18	24.78 ± 0.28	34.79 ± 0.39	35.92 ± 0.41	34.62 ± 0.41
333.15 K	1.202 ± 0.014	1.709 ± 0.021	2.703 ± 0.034	6.7 ± 0.081	10.24 ± 0.12	13.74 ± 0.16	14.49 ± 0.17	14.38 ± 0.17
353.15 K	0.813 ± 0.01	1.127 ± 0.014	1.63 ± 0.02	3.472 ± 0.042	4.873 ± 0.057	6.569 ± 0.077	7.084 ± 0.083	7.082 ± 0.086
363.15 K	0.687 ± 0.008	0.871 ± 0.01	1.205 ± 0.015	2.606 ± 0.031	3.611 ± 0.042	4.749 ± 0.056	5.278 ± 0.062	5.277 ± 0.064

O [water] + CN(CCO)CCO
[2], x2 = 0
Conditions	viscosity [mPa·s]
313.15 K	0.656 ± 0.008
333.15 K	0.476 ± 0.006
353.15 K	0.358 ± 0.004
363.15 K	0.305 ± 0.004
